Assays:
[1] = test system: mitochondrial bioenergetics; experiment: Mitochondrial respiration (respiratory control ratio) 24 hours post-CCI, focal TBI model in piglets; type: in vivo
Experimental: (§1) Study Design: A blinded, placebo controlled proof of concept trial of CMX-2043 was conducted in four-week-old piglets (8-10 kg). […] Sixteen piglets (n=16) were designated into three cohorts: 1) Controlled cortical impact (CCI) at the rostral gyrus treated with a bolus of CMX-2043 (n=5), 2) CCI injured animals treated with placebo (n=5) and 3) sham animals (n=6). CMX-2043 treated animals received an intravenous loading bolus of CMX-2043 (13.4 mg/kg) 1 hour post-TBI and a 4.5 mg/kg bolus at 13 hours post-TBI. Subjects were intubated, ventilated and anesthesia maintained on isoflurane (1.0%). Buprenorphine (0.02 mg/kg IM) was administered for analgesia immediately following intubation. Monitors recorded oxygen saturation, heart rate, respiration rate, rectal temperature, and end tidal CO2. […] All piglets were sacrificed between 24-25 hours post-TBI.
Mitochondrial Respiration and ROS Production: Twenty four hours post-CCI the ipsilateral penumbra and mirrored contralateral cortex were harvested. The rate of oxygen consumption was recorded via high-resolution Oroboros Oxygraph-2k™ with a specific Substrate-Uncouple-Inhibitor-Titration Protocol (SUIT). […] Maximal reserve capacity of the electron transfer system (ETSCI+CII) was measured by titrating the protonophore carbonyl cyanide p-(trifluoro-methoxy) phenylhydrazone (FCCP). […]

[2] = test system: protein carboxylation; experiment: Protein carboxylation by ELISA, focal TBI model in piglets; type: in vivo; details: cortical penumbra, ipsilateral; vs placebo, p<0.01
Experimental: as §1
Samples from the same ipsilateral region that were analyzed for mtROS were analyzed for oxidative damage by measuring protein carboxylation (VWR Int'l), and compared to placebo and shams.

[3] = test system: fluid percussion model of diffused traumatic brain injury (TBI) in rats; experiment: Limb placing test, fluid percussion model of diffused TBI; type: in vivo, rat; details: vs vehicle, p<0.001, starting 1 day following TBI
Experimental: On the day before TBI surgery (Day −1), rats were anesthetized with 3% isoflurane in a mixture of nitrous oxide and oxygen (2:1) for induction of anesthesia and then maintained at 1-3% isoflurane in a mixture of nitrous oxide and oxygen (2:1). The surgical site skin was shaved, and the rat was then placed in a stereotaxic frame. Buprenorphine SR, s.c, (0.9-1.2 mg/kg Zoopharm: Lot: BSR1-142111) and Cefazolin, i.p., (40-50 mg/kg; Hospira: Lot: 101D032) was given at this time. The skull was exposed through a midline incision. A parasagittal craniotomy (5 mm) using a trephine drill was performed at 1 mm posterior to bregma and 1 mm lateral to the midline (outer circumference). A sterile plastic injury tube (the plastic connector hub of a sterile needle cut 1 cm in length and trimmed to fill the craniotomy securely) was placed over the exposed dura and bonded by super glue to the skull. Dental cement was then poured around the injury tube to obtain a complete seal. After the dental cement had hardened, the injury tube was filled with sterile saline and the skin was closed by surgical clips. The animals were then returned to a clean home cage after recovery from the anesthesia.
On the day of TBI surgery (Day 0), rats were re-anesthetized with 3% isoflurane in a mixture of nitrous oxide and oxygen (2:1), intubated, connected to a respirator and ventilated with 1-2% isoflurane in a mixture of nitrous oxide and oxygen (2:1). […] The amplitude of the resulting pressure pulse was measured in atmospheres by a pressure transducer. […]
Dosing solutions were prepared in a blinded fashion with H, I, M, O and Z labels ready to use. […]
Limb placing tests were divided into both forelimb and hindlimb tests. For the forelimb-placing test, the examiner held the rat close to a tabletop and scored the rat's ability to place the forelimb on the tabletop in response to whisker, visual, tactile, or proprioceptive stimulation. For the hindlimb placing test, the examiner assessed the rat's ability to place the hindlimb on the tabletop in response to tactile and proprioceptive stimulation. […]

[4] = test system: lipid peroxidation (4-HNE); experiment: Lipid peroxidation by 4-hydroxynonenal (4-HNE) Western blot, focal TBI model in piglets; type: in vivo; details: cortical penumbra, ipsilateral; vs placebo, p<0.001
Experimental: as §1
Samples from the same ipsilateral injured region analyzed for mtROS were analyzed for oxidative damage by measuring 4-HNE as an assessment of lipid peroxidation by Western Blot analysis (EMD Millipore), normalized by GAPDH (EMD Millipore), and compared to placebo and shams.

CC(NC(=O)C(CCC(=O)O)NC(=O)CCCCC1CCSS1)C(=O)O [CMX-2043, N—(R)-lipoyl-glutamylalanine]
Respiratory control ratio (RCR; OXPHOS CI+CII/LEAK CI+CII) ([1]; contralateral cortex, P=0.09 vs placebo): 11.05±1.71
Respiratory control ratio (RCR; OXPHOS CI+CII/LEAK CI+CII) ([1]; ipsilateral cortex, i.v. 13.4 mg/kg at 1 hour and 4.5 mg/kg at 13 hours post-TBI, p<0.05 vs placebo): 11.61±2.28
Protein carboxylation (ELISA) [2]: significant reduction in protein carboxylation
Limb placing test recovery ([3]; 15 mg/kg i.v. at 30 minutes and 24 hours after TBI): superior recovery compared to vehicle-treated animals
Limb placing test recovery ([3]; 30 mg/kg i.v. at 30 minutes and 24 hours after TBI): superior recovery compared to vehicle-treated animals
Limb placing test recovery ([3]; 45 mg/kg i.v. at 30 minutes and 24 hours after TBI): superior recovery compared to vehicle-treated animals
Lipid peroxidation (4-HNE) [4]: significant reduction in lipid peroxidation

From patent US11213509B2, “Compositions and methods for treating traumatic brain injury” (Ischemix, LLC, priority 2017, dated 2022)
